This passage reports inhibition of growth results from patent publication US11180462B2, “Microbiocidal oxadiazole derivatives” (SYNGENTA PARTICIPATIONS AG, priority 2015, dated 2021).

A value given as a limit tells only on which side of the number the result lay.

For this experiment, the system named is Glomerella lagenarium (Colletotrichum lagenarium). Put plainly: Fungicidal activity against Glomerella lagenarium (Colletotrichum lagenarium) liquid culture / cucumber / preventative (anthracnose). The format is cell-based. The settings on record: Colletotrichum orbiculare; 20 ppm in the applied formulation; liquid culture (PDB), growth inhibition measured photometrically after 3 to 4 days; compared to untreated control; read-out: disease control. The essentials: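 Percent activity against the untreated check was derived from photometric growth measurements made 2 to 7 days after conidia in potato dextrose broth were combined with compound at 20 ppm. Cultures were kept dark at 24 °C and 96% humidity.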

In the case of `CCCON(Cc1ccc(-c2noc(C(F)(F)F)n2)cc1)C(=O)C1CSC1` [Compound 1.292, N-propoxy-N-[[4-[5-(trifluoromethyl)-1,2,4-oxadiazol-3-yl]pheny1]methyl]-thietane-3-carboxamide], the inhibition of growth at 20 ppm is at least 80%.

Take `CCCON(Cc1ccc(-c2noc(C(F)(F)F)n2)cc1)C(=O)C1CCC1` [Compound 1.295, N-propoxy-N-[[4-[5-(trifluoromethyl)-1,2,4-oxadiazol-3-yl]phenyl]methyl]-cyclobutane-carboxamide]: the inhibition of growth at 20 ppm is at least 80%.

Turning to `CCCON(Cc1ccc(-c2noc(C(F)(F)F)n2)cc1)C(=O)C1CC1` [Compound 1.319, N-propoxy-N-[[4-[5-(trifluoromethyl)-1,2,4-oxadiazol-3-yl]phenyl]methyl]-cyclopropane-carboxamide], the inhibition of growth at 20 ppm was at least 80%.

With `COCCC(=O)N(Cc1ccc(-c2noc(C(F)(F)F)n2)cc1)OCc1ccc(Cl)cc1` [Compound 1.549, N-[(4-chlorophenyl)-methoxy]-3-methoxy-N-[[4-[5-(trifluoromethyl)-1,2,4-oxadiazol-3-yl]phenyl]methyl]-propanamide], the inhibition of growth at 20 ppm is at least 80%. `CCCCC(=O)N(OC)C(C)c1ccc(-c2noc(C(F)(F)F)n2)cc1` (stereo not shown) [Compound 1.281, N-methoxy-N-[1-[4-[5-(trifiuoromethyl)-1,2,4-oxadiazol-3-yl]phenyl]ethyl]-pentanamide]: the inhibition of growth at 20 ppm is at least 80%. Then `C#CCN(Cc1ccc(-c2noc(C(F)(F)F)n2)cc1)C(=O)C1(C)CC1(Cl)Cl` (stereo not shown) [Compound 1.174, 2,2-dichloro-1-methyl-N-prop-2-ynyl-N-[[4-[5-(trifluoromethyl)-1,2,4-oxadiazol-3-yl]phenyl]methyl]-cyclopropane-carboxamide], with at least 80%; and `CON(Cc1ccc(-c2noc(C(F)(F)F)n2)cc1)C(=O)n1ccnc1` [Compound 1.811, N-methoxy-N-[[4-[5-(trifluoromethyl)-1,2,4-oxadiazol-3-yl]phenyl]methyl]-imidazole-1-carboxamide], with at least 80%. With `COCCCC(=O)N(Cc1ccc(-c2noc(C(F)(F)F)n2)cc1)OCC=C(Cl)Cl` [Compound 1.543, N-(3,3-dichloroallyloxy)-4-methoxy-N-[[4-[5-(trifluoromethyl)-1,2,4-oxadiazol-3-yl]phenyl]methyl]-butanamide] the figure was at least 80%; with `C=CC(=O)N(CCOC)Cc1ccc(-c2noc(C(F)(F)F)n2)cc1` [Compound 1.343, N-(2-methoxyethyl)-N-[[4-[5-(trifluoromethyl)-1,2,4-oxadiazol-3-yl]phenyl]methyl]prop-2-enamide], at least 80%. With `CCCON(Cc1ccc(-c2noc(C(F)(F)F)n2)cc1)C(=O)C1CC1(F)F` (stereo not shown) [Compound 1.286, 2,2-difluoro-N-propoxy-N-[[4-[5-(trifluoromethyl)-1,2,4-oxadiazol-3-yl]phenyl]methyl]-cyclopropane-carboxamide] the figure was at least 80%; with `CCCC(=O)N(Cc1ccc(-c2noc(C(F)(F)F)n2)cc1)OCC=C(Cl)Cl` [Compound 1.541, N-(3,3-dichloroallyloxy)-N-[[4-[5-(trifluoromethyl)-1,2,4-oxadiazol-3-yl]phenyl]methyl]-butanamide], at least 80%. Turning to `CCCCON(Cc1ccc(-c2noc(C(F)(F)F)n2)cc1)C(=O)C(C)C` [Compound 1.633, N-butoxy-2-methyl-N-[[4-[5-(trifluoromethyl)-1,2,4-oxadiazol-3-yl]phenyl]methyl]-propanamide], the inhibition of growth at 20 ppm is at least 80%. Regarding `O=C(C1CCCC1)N(Cc1ccc(-c2noc(C(F)(F)F)n2)cc1)CC1CCCO1` (stereo not shown) [Compound 1.419, N-(tetrahydrofuran-2-ylmethyl)-N-[[4-[5-(trifluoromethyl)-1,2,4-oxadiazol-3-yl]phenyl]methyl]-cyclopentane-carboxamide], the inhibition of growth at 20 ppm was at least 80%.
